Assay results: patent publication US11083735B2, “Methods for treating sleep disorders, sleep disturbances, and related symptoms using aminosterol compositions” (Enterin, Inc., priority 2017, dated 2021)
Values joined by “and” are separate entries in the source; they are usually repeats but may differ in a detail not shown here. Identical values can stand only once. Like-named read-outs stand apart in the source and are kept apart here.

Legend:
[1] = tested on: patients with PD and constipation; conditions: in vivo
Description: In Stage 1, ten (10) PD patients received a single escalating dose of squalamine (ENT-01) every 3-7 days beginning at 25 mg and continuing up to 200 mg or the limit of tolerability, followed by 2-weeks of wash-out. Duration of this part of the trial was 22-57 days. The 10 subjects in the sentinel group were assigned to Cohort 1 and participated in 8 single dosing periods. Tolerability limits included diarrhea or vomiting.
Each dose period was staggered, so that subjects 1-2 were administered a single dose of the drug at the lowest dose of 25 mg. Once 24 hours have elapsed, and provided there are no safety concerns, the patient was sent home and brought back on day 4-8 for the next dose. During the days the subjects are home, they completed the daily diaries and e-mailed them to the study coordinators. Subjects 3-10 were dosed after the first 2 subjects have been observed for 72 hours, i.e. on Day 4. Subjects 1-2 were also brought back on Day 4-8 and given a single dose of 50 mg. Once another 24 hours have elapsed and provided there are no safety concerns, the patients were all sent home and instructed to return on Day 7 for the next dosing level. This single dosing regimen was continued until each subject was given a single dose of 200 mg or has reached a dose limiting toxicity (DLT). DLT was the dose which induces repeated vomiting, diarrhea, abdominal pain or symptomatic postural hypotension within 24 hours of dosing.
(§1) Adverse events were coded using the current version of MedDRA. Severity of AEs were assessed by investigators according to CTCAE (v4.03): Grade 1 is labeled as Mild, Grade 2 as Moderate, and Grade 3 and above as Severe. […] The number (percentage) of subjects who experienced an AE during escalation and fixed dosing periods were summarized by dose level and overall for each stage. The denominator for calculating the percentages were based on the number of subjects ever exposed to each dose and overall.

[2] = tested on: patients with PD and constipation; conditions: in vivo; remark: listed apart in the source
Description: In Stage 2, 34 patients were evaluated. […] This dose was then maintained (“fixed dose”) for an additional 3-5 days. After the “fixed dose”, these patients were randomly assigned to either continued treatment at that dose or to a matching placebo, for an additional 4-6 days prior to a 2-week wash-out.
A second cohort of 19 patients received squalamine (ENT-01) escalating from 100 mg/day to a maximum of 250 mg/day without subsequent randomization to squalamine (ENT-01) or placebo. Criteria for dose selection and efficacy were identical to those used in the previous cohort.
as §1

[3] = tested on: elderly patient with a sleep disorder; assay: Example 1: person with sleep disturbance, oral squalamine (Kenterin), sleep diary and I-button wrist temperature; assay type: in vivo, human; conditions: for % Change in Hours: 125 qod
Description: An elderly patient with a sleep disorder was treated with squalamine to determine the efficacy of the drug for treating sleep disturbances. The patient was a person with a 10 year history of sleep disturbance and a history of constipation, anxiety, and anosmia for as long as they could remember. Their sleep was profoundly disturbed: they had difficulty falling asleep, awoke 3-4 times during the night, had vivid dreams and nightmares, spoke and screamed out loud during their sleep (REM-behavior disorder, RBD), often saw “apparitions” or people in the room (e.g., a cook in a top hat, priests and angels dressed in white). They slept with a night light on in an attempt to minimize these occurrences.
The patient was treated with oral squalamine (Kenterin™) starting at 100 mg qd and increasing to 200 mg qd. Sleep was monitored indirectly with the use of a temperature sensor (I-button) mounted on a wristband. The sensor was programed to record skin temperature at the wrist every 15 minutes 24 hrs a day. Data were downloaded every few weeks.
In other words, as the dose is increased, the hours of sleep increase, and as the dose was decreased, the hours of sleep decreased. The effect was immediate. Shown in FIG. 2 is the hours of sleep resulting following the following dosing schedule for squalamine: (1) 100 mg q.d., (2) 150 mg q.d., (3) 200 mg q.d., (4) 125 mg every third day, (5) 100 mg every third day, and (6) 125 mg q.o.d.
In other words, the patient was falling asleep more easily. […] Thus, not only does squalamine decrease delay in sleep onset and increase total sleep time, but it also has an effect on RBD and hallucinations, both of which occur as a result of Circadian rhythm dysfunction.

[4] = tested on: single IPAN of the myenteric plexus; assay: IPAN electrophysiology, jejunum with luminal epithelium stripped; set-up: species or system mouse; conditions: squalamine applied directly onto the myenteric plexus
Description: Intrinsic primary afferent neurons (IPANs) are believed to be normally stimulated indirectly, through release of neurotransmitters from the epithelium. Since squalamine can be readily transported across an intact intestinal epithelial layer, and can enter a neuron, altering the surface potential of its plasma membrane, an experiment was designed to determine whether the effects of squalamine on the IPAN required the presence of the luminal epithelium.
Jejunum was prepared as described in the previous experiment, except the luminal epithelium was manually stripped off the organ using forceps. Squalamine was applied directly onto the myenteric plexus from the luminal surface. Electrophysiological studies were repeated to monitor the activity of a single IPAN within the area of the release of compound. Within 5 seconds the IPAN began a series of spontaneous discharges (FIG. 13A). […] Squalamine appears to be capable of communicating directly with the ENS, in contrast to most substances that communicate with the ENS only indirectly, via their effects on the epithelium.

[5] = 100 mg q3d, days 81-83, daily values and mean
[6] = 100 mg q3d, days 81-83, daily values and mean, mean
[7] = 150 mg q3d, days 105-111, daily values and mean
[8] = 150 mg q3d, days 105-111, daily values and mean, mean
[9] = 150 mg qod, days 100-104, daily values and mean
[10] = 150 mg qod, days 100-104, daily values and mean, mean
[11] = days 53-55: 175/200 mg, daily values and Mean 200
[12] = days 53-55: 175/200 mg, daily values and Mean 200, mean

In the case of `CC(C)[C@@H](CC[C@@H](C)[C@H]1CC[C@H]2[C@@H]3[C@H](O)C[C@H]4C[C@@H](NCCCNCCCCN)CC[C@]4(C)[C@H]3CC[C@]12C)OS(=O)(=O)O` (single isomer, unassigned; ent-01) [ENT-01], the “Eye infection, Moderate” value [1] is reported as 0 n, % and the “Eye infection, Moderate” value [2] is reported as 0 n, %.

For `CC(C)[C@@H](CC[C@@H](C)[C@H]1CC[C@H]2[C@@H]3[C@H](O)C[C@H]4C[C@@H](NCCCNCCCCN)CC[C@]4(C)[C@H]3CC[C@]12C)OS(=O)(=O)O` [squalamine], the Delay [3, 5] was 30 min, the Fragments awake [3, 5] was 40 min and 30 min and the Total hrs sleep [3, 5] was 6.75 h and 7 h. For the same molecule, the Fragments awake [3, 6] was 36 min, the Total hrs sleep [3, 6] was 6.8 h and the Delay ([3]; 125 mg q3d, days 69-80, daily values and mean) was 20 min and 30 min. For the same molecule, the Delay ([3]; 125 mg q3d, days 69-80, daily values and mean, mean) was 25 min, the Delay [3, 7] was 10 min and 15 min and 20 min and the Total hrs sleep [3, 7] was 10 h and 9.50 h and 8.75 h and 9.75 h and 8 h. For the same molecule, the Delay [3, 8] was 14 min, the Total hrs sleep [3, 8] was 9.3 h and the Delay [3, 9] was 15 min and 20 min. The Total hrs sleep [3, 9] was 9 h and 8.5 h and 7.75 h and 10 h and 9.5 h, the Delay [3, 10] was 17 min and the Total hrs sleep [3, 10] was 8.95 h. The “% Change in Hours (from base)” value ([3]; 100 qd) was “+5.3%”, the Total hrs sleep ([3]; 100 qd (mg), pre (0) 7.5) was 7.9 h and the Total hrs sleep ([3]; 125 qod (mg)) was 8.7 h. The “% Change in Hours” value ([3]; from initial pre(0)) was “+16% from initial pre(0);”, the “% Change in Hours” value ([3]; from post (0)) was “+24.3% from post (0)” and the “% Change in Hours (from base)” value ([3]; 150 qd) was “+17.3%”. The Total hrs sleep ([3]; 150 qd (mg)) was 8.8 h, the Total hrs sleep ([3]; 200 qd (mg), baseline 7.5) was 9.1 h and the “% Change in Hours (from base)” value ([3]; Post (0)) was −6.7%. For the same molecule, the Total hrs sleep ([3]; Post (0), after discontinuation of squalamine) was 7.0 h, the Fragments awake ([3]; after STOP, days 62-68, daily values and mean) was 30 min and 20 min and the “diurnal rhythm (I-button recording, FIG. 7)” value ([3]; after an appropriate dose of squalamine) was “restored almost immediately”. The “diurnal rhythmicity (I-button, periodogram)” value ([3]; after intermittent treatment for several months) was “some diurnal rhythmicity was restored”, the “circadian rhythm (I-button, periodogram)” value ([3]; after the first week of treatment) was “still absent” and the Delay ([3]; days 53-55: 175 mg (day 53), 200 mg (days 54-55), daily values and Mean 200) was 20 min. For the same molecule, the Fragments awake [3, 11] was 15 min and 30 min, the Total hrs sleep [3, 11] was 9.0 h and 9.25 h and the Fragments awake [3, 12] was 20 min. The Total hrs sleep [3, 12] was 9.1 h, the Total hrs sleep ([3]; off K, days 112-135, daily values and mean) was 4.5 h and the “RBD (vivid dreams and nightmares) and frank visual hallucinations” value ([3]; on treatment, reappeared when medication was discontinued) was “disappeared on treatment”. For the same molecule, the “time to onset of spontaneous discharges of the IPAN” value [4] was ≤ 5 s.
